Measured values from paper PMC6407576, “Synthesis and evaluation of anticancer, antiphospholipases, antiproteases, and antimetabolic syndrome activities of some 3H-quinazolin-4-one derivatives” (Journal of Enzyme Inhibition and Medicinal Chemistry, 2019).
pIC50: −log10 of the molar value.

Biological target: Apis mellifera bee venom (AmPLA2) (Apis mellifera, UniProt P00630)
Assay: biochemical
Details: not given

Apis mellifera bee venom (AmPLA2), sequence (P00630 34-167 limits assumed): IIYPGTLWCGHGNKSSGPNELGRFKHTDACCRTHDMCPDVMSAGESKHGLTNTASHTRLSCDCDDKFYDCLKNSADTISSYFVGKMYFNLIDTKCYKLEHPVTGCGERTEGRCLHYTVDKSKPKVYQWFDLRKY

SMILES	pIC50
Cc1nc2ccccc2c(=O)n1/N=C/c1ccc(C#N)cc1 [Compound 8g, (E)-4-[(2-Methyl-4-oxo-4H-quinazolin-3-ylimino)-methyl]-benzonitrile]	4.33
Cc1nc2ccc(Br)cc2c(=O)n1/N=C/c1ccc(C#N)cc1 [Compound 8h, (E)-4-[(6-Bromo-2-methyl-4-oxo-4H-quinazolin-3-ylimino)-methyl]-benzonitrile]	4.10
Cc1nc2ccccc2c(=O)n1/N=C/c1ccc(-c2ccccc2)cc1 [Compound 8i]	4.56
Cc1nc2ccccc2c(=O)n1NC(=O)OCC(C)C [Compound 10, (2-methyl-4-oxo-4H-quinazolin-3-yl)-carbamic acid isobutyl ester]	4.79
Cc1cccc(NC(=O)CSc2nc3ccccc3c(=O)n2-c2ccccc2)c1C [Compound 15e]	4.68
CC1(C)CC[C@]2(C(=O)O)CC[C@]3(C)C(=CC[C@@H]4[C@@]5(C)CC[C@H](O)C(C)(C)[C@@H]5CC[C@]43C)[C@@H]2C1 [Oleanolic acid, reference compound]	5.04

Biological target: Naja mossambica mossambica sPLA2 (NmPLA2)
Assay: In vitro antiphospholipase activity
Assay type: biochemical
Details: 20 min preincubation, lecithin substrate, pH 7.6

SMILES	mean IC50 against NmPLA2 [µg/mL]
Cc1nc2ccccc2c(=O)n1/N=C/c1ccc(C#N)cc1 [Compound 8g, (E)-4-[(2-Methyl-4-oxo-4H-quinazolin-3-ylimino)-methyl]-benzonitrile]	12.75 ± 1.06
Cc1nc2ccc(Br)cc2c(=O)n1/N=C/c1ccc(C#N)cc1 [Compound 8h, (E)-4-[(6-Bromo-2-methyl-4-oxo-4H-quinazolin-3-ylimino)-methyl]-benzonitrile]	22.90 ± 1.27
Cc1nc2ccccc2c(=O)n1/N=C/c1ccc(-c2ccccc2)cc1 [Compound 8i]	11.00 ± 1.41
Cc1nc2ccccc2c(=O)n1NC(=O)OCC(C)C [Compound 10, (2-methyl-4-oxo-4H-quinazolin-3-yl)-carbamic acid isobutyl ester]	13.45 ± 0.78
Cc1cccc(NC(=O)CSc2nc3ccccc3c(=O)n2-c2ccccc2)c1C [Compound 15e]	11.00 ± 1.41
CC1(C)CC[C@]2(C(=O)O)CC[C@]3(C)C(=CC[C@@H]4[C@@]5(C)CC[C@H](O)C(C)(C)[C@@H]5CC[C@]43C)[C@@H]2C1 [Oleanolic acid, reference compound]	4.90 ± 0.42

Biological target: T1, human group V (hG-V) sPLA2 (Homo sapiens, UniProt P39877)
T1 sequence (P39877 21-138): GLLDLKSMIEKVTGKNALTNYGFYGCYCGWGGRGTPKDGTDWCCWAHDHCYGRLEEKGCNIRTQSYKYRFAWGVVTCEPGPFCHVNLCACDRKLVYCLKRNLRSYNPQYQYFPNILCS
Assay: In vitro antiphospholipase activity
Assay type: biochemical
Details: 20 min preincubation, lecithin substrate, pH 7.6

SMILES	mean IC50 against hG-V [µg/mL]
CC1(C)CC[C@]2(C(=O)O)CC[C@]3(C)C(=CC[C@@H]4[C@@]5(C)CC[C@H](O)C(C)(C)[C@@H]5CC[C@]43C)[C@@H]2C1 [Oleanolic acid, reference compound]	7.50 ± 0.71

Same assay, conditions: 20 min preincubation, lecithin substrate, pH 7.6; read-out: mean IC50 against hG-V (converted)

SMILES	IC50 [µM]
Cc1nc2ccccc2c(=O)n1/N=C/c1ccc(C#N)cc1 [Compound 8g, (E)-4-[(2-Methyl-4-oxo-4H-quinazolin-3-ylimino)-methyl]-benzonitrile]	117
Cc1nc2ccc(Br)cc2c(=O)n1/N=C/c1ccc(C#N)cc1 [Compound 8h, (E)-4-[(6-Bromo-2-methyl-4-oxo-4H-quinazolin-3-ylimino)-methyl]-benzonitrile]	92.6
Cc1nc2ccccc2c(=O)n1/N=C/c1ccc(-c2ccccc2)cc1 [Compound 8i]	67.8
Cc1nc2ccccc2c(=O)n1NC(=O)OCC(C)C [Compound 10, (2-methyl-4-oxo-4H-quinazolin-3-yl)-carbamic acid isobutyl ester]	62.7
Cc1cccc(NC(=O)CSc2nc3ccccc3c(=O)n2-c2ccccc2)c1C [Compound 15e]	32.2

Biological target: xanthine oxidase (Homo sapiens, UniProt P47989)
Assay: In vitro inhibition of xanthine oxidase
Assay type: biochemical
Details: not given

xanthine oxidase, sequence (P47989 whole entry, species assumed): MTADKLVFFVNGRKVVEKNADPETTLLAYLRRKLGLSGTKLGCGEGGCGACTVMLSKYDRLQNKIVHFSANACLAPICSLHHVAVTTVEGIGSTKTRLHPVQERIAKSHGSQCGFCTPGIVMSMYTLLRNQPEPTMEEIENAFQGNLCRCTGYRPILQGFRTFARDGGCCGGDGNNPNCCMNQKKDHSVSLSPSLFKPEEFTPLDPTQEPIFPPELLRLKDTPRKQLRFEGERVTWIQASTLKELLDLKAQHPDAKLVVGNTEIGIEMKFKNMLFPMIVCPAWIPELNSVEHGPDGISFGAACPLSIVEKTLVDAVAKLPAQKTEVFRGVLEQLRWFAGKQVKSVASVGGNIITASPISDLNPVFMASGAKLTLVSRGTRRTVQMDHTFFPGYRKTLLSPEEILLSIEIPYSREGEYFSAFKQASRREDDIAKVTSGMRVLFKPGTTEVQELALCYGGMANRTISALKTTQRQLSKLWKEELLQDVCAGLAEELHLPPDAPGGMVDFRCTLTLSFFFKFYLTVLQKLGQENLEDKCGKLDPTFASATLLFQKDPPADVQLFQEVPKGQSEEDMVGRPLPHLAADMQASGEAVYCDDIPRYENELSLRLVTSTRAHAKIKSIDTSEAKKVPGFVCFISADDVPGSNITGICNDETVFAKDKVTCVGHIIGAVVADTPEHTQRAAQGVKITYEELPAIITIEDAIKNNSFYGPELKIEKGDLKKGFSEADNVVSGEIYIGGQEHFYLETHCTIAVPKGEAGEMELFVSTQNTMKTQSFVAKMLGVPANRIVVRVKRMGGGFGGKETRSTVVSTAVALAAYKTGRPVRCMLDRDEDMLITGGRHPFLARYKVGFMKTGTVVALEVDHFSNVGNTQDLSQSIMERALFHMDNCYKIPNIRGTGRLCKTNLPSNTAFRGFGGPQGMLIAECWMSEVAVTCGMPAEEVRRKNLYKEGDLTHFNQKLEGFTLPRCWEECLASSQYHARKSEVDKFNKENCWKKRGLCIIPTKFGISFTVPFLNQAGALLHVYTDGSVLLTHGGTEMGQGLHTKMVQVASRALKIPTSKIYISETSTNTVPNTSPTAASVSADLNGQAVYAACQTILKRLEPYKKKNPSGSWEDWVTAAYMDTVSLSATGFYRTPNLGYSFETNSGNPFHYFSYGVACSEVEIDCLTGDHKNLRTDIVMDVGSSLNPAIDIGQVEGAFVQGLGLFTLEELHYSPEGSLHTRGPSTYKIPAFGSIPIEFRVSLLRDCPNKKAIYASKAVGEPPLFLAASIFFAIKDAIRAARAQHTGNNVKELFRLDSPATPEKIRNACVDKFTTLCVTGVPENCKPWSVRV

SMILES	pIC50
Cc1nc2ccccc2c(=O)n1/N=C/c1ccc(C#N)cc1 [Compound 8g, (E)-4-[(2-Methyl-4-oxo-4H-quinazolin-3-ylimino)-methyl]-benzonitrile]	3.59
Cc1nc2ccc(Br)cc2c(=O)n1/N=C/c1ccc(C#N)cc1 [Compound 8h, (E)-4-[(6-Bromo-2-methyl-4-oxo-4H-quinazolin-3-ylimino)-methyl]-benzonitrile]	3.81
Cc1nc2ccccc2c(=O)n1/N=C/c1ccc(-c2ccccc2)cc1 [Compound 8i]	4.60
Cc1nc2ccccc2c(=O)n1NC(=O)OCC(C)C [Compound 10, (2-methyl-4-oxo-4H-quinazolin-3-yl)-carbamic acid isobutyl ester]	3.96
Cc1cccc(NC(=O)CSc2nc3ccccc3c(=O)n2-c2ccccc2)c1C [Compound 15e]	4.01

Test system: not given
Assay: not given
Details: not given

SMILES	melting point [°C]
Cc1nc2ccccc2c(=O)n1/N=C/c1ccc(C#N)cc1 [Compound 8g, (E)-4-[(2-Methyl-4-oxo-4H-quinazolin-3-ylimino)-methyl]-benzonitrile]	222 to 224
Cc1nc2ccc(Br)cc2c(=O)n1/N=C/c1ccc(C#N)cc1 [Compound 8h, (E)-4-[(6-Bromo-2-methyl-4-oxo-4H-quinazolin-3-ylimino)-methyl]-benzonitrile]	228 to 230
Cc1nc2ccccc2c(=O)n1NC(=O)OCC(C)C [Compound 10, (2-methyl-4-oxo-4H-quinazolin-3-yl)-carbamic acid isobutyl ester]	168 to 170

Biological target: thrombin (Homo sapiens, UniProt P00734)
Assay: In vitro antiprotease activity
Assay type: biochemical
Details: 15 min preincubation; read-out: mean IC50 against Thrombin (converted)
Method: (§1) The inhibitory effects of 21 3H-quinazolin-4-one derivatives on several available therapeutically important proteases such as cathepsin-B, collagenase, elastase, thrombin, and trypsin were investigated. […] The protease inhibitory activity was expressed as inhibition percentage, which was determined by comparison with a control experiment. The results were expressed as IC50 values that were determined from the standard curve. A protease inhibitor cocktail (Sigma) was used as the positive control.

SMILES	IC50 [µM]
Cc1nc2ccccc2c(=O)n1/N=C/c1ccc(C#N)cc1 [Compound 8g, (E)-4-[(2-Methyl-4-oxo-4H-quinazolin-3-ylimino)-methyl]-benzonitrile]	48.6
Cc1nc2ccc(Br)cc2c(=O)n1/N=C/c1ccc(C#N)cc1 [Compound 8h, (E)-4-[(6-Bromo-2-methyl-4-oxo-4H-quinazolin-3-ylimino)-methyl]-benzonitrile]	66.7
Cc1nc2ccccc2c(=O)n1/N=C/c1ccc(-c2ccccc2)cc1 [Compound 8i]	51.6
Cc1nc2ccccc2c(=O)n1NC(=O)OCC(C)C [Compound 10, (2-methyl-4-oxo-4H-quinazolin-3-yl)-carbamic acid isobutyl ester]	8.54
Cc1cccc(NC(=O)CSc2nc3ccccc3c(=O)n2-c2ccccc2)c1C [Compound 15e]	57.8

Biological target: T2, trypsin (Bos taurus, UniProt P00760)
T2 construct: gene PRSS1
T2 sequence (P00760 24-246): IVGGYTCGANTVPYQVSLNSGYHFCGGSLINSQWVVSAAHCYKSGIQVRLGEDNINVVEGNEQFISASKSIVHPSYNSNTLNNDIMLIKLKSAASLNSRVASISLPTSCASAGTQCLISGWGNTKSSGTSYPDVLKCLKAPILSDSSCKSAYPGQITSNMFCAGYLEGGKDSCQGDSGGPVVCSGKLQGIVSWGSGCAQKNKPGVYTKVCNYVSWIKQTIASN
Assay: In vitro antiprotease activity
Assay type: biochemical
Details: 15 min preincubation; read-out: mean IC50 against Trypsin (converted)
Method: as §1

SMILES	IC50 [µM]
Cc1nc2ccccc2c(=O)n1/N=C/c1ccc(C#N)cc1 [Compound 8g, (E)-4-[(2-Methyl-4-oxo-4H-quinazolin-3-ylimino)-methyl]-benzonitrile]	46.8
Cc1nc2ccc(Br)cc2c(=O)n1/N=C/c1ccc(C#N)cc1 [Compound 8h, (E)-4-[(6-Bromo-2-methyl-4-oxo-4H-quinazolin-3-ylimino)-methyl]-benzonitrile]	91.2
Cc1nc2ccccc2c(=O)n1/N=C/c1ccc(-c2ccccc2)cc1 [Compound 8i]	36.8
Cc1nc2ccccc2c(=O)n1NC(=O)OCC(C)C [Compound 10, (2-methyl-4-oxo-4H-quinazolin-3-yl)-carbamic acid isobutyl ester]	4
Cc1cccc(NC(=O)CSc2nc3ccccc3c(=O)n2-c2ccccc2)c1C [Compound 15e]	81.8

Biological target: elastase
Assay: In vitro antiprotease activity
Assay type: biochemical
Details: 15 min preincubation
Method: as §1

SMILES	mean IC50 against Elastase [µg/mL]
Cc1nc2ccccc2c(=O)n1/N=C/c1ccc(C#N)cc1 [Compound 8g, (E)-4-[(2-Methyl-4-oxo-4H-quinazolin-3-ylimino)-methyl]-benzonitrile]	11.00 ± 0.41
Cc1nc2ccc(Br)cc2c(=O)n1/N=C/c1ccc(C#N)cc1 [Compound 8h, (E)-4-[(6-Bromo-2-methyl-4-oxo-4H-quinazolin-3-ylimino)-methyl]-benzonitrile]	27.50 ± 2.12
Cc1nc2ccccc2c(=O)n1/N=C/c1ccc(-c2ccccc2)cc1 [Compound 8i]	13.50 ± 2.12
Cc1nc2ccccc2c(=O)n1NC(=O)OCC(C)C [Compound 10, (2-methyl-4-oxo-4H-quinazolin-3-yl)-carbamic acid isobutyl ester]	1.45 ± 0.21
Cc1cccc(NC(=O)CSc2nc3ccccc3c(=O)n2-c2ccccc2)c1C [Compound 15e]	31.50 ± 2.12

Biological target: cathepsin-B (Homo sapiens, UniProt P07858)
Assay: In vitro antiprotease activity
Assay type: biochemical
Details: 15 min preincubation; read-out: mean IC50 against Cathepsin-B (converted)
Method: as §1

SMILES	IC50 [µM]
Cc1nc2ccccc2c(=O)n1/N=C/c1ccc(C#N)cc1 [Compound 8g, (E)-4-[(2-Methyl-4-oxo-4H-quinazolin-3-ylimino)-methyl]-benzonitrile]	25.1
Cc1nc2ccc(Br)cc2c(=O)n1/N=C/c1ccc(C#N)cc1 [Compound 8h, (E)-4-[(6-Bromo-2-methyl-4-oxo-4H-quinazolin-3-ylimino)-methyl]-benzonitrile]	10.9
Cc1nc2ccccc2c(=O)n1/N=C/c1ccc(-c2ccccc2)cc1 [Compound 8i]	10.3
Cc1nc2ccccc2c(=O)n1NC(=O)OCC(C)C [Compound 10, (2-methyl-4-oxo-4H-quinazolin-3-yl)-carbamic acid isobutyl ester]	81.7
Cc1cccc(NC(=O)CSc2nc3ccccc3c(=O)n2-c2ccccc2)c1C [Compound 15e]	3.85

Biological target: collagenase
Assay: In vitro antiprotease activity
Assay type: biochemical
Details: 15 min preincubation
Method: as §1

SMILES	mean IC50 against Collagenase [µg/mL]
Cc1nc2ccccc2c(=O)n1/N=C/c1ccc(C#N)cc1 [Compound 8g, (E)-4-[(2-Methyl-4-oxo-4H-quinazolin-3-ylimino)-methyl]-benzonitrile]	17.25 ± 1.77
Cc1nc2ccc(Br)cc2c(=O)n1/N=C/c1ccc(C#N)cc1 [Compound 8h, (E)-4-[(6-Bromo-2-methyl-4-oxo-4H-quinazolin-3-ylimino)-methyl]-benzonitrile]	14.50 ± 2.12
Cc1nc2ccccc2c(=O)n1/N=C/c1ccc(-c2ccccc2)cc1 [Compound 8i]	15.25 ± 1.06
Cc1nc2ccccc2c(=O)n1NC(=O)OCC(C)C [Compound 10, (2-methyl-4-oxo-4H-quinazolin-3-yl)-carbamic acid isobutyl ester]	28.00 ± 1.41
Cc1cccc(NC(=O)CSc2nc3ccccc3c(=O)n2-c2ccccc2)c1C [Compound 15e]	4.50 ± 0.71

Biological target: T3, human group IIA (hG-IIA) sPLA2 (Homo sapiens, UniProt P14555)
T3 sequence (P14555 21-144): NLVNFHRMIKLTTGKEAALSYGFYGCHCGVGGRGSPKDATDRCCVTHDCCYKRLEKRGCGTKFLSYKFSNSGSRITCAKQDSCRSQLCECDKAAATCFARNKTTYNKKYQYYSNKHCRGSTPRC
Assay: In vitro antiphospholipase activity
Assay type: biochemical
Details: not given

SMILES	pIC50
Cc1nc2ccccc2c(=O)n1/N=C/c1ccc(C#N)cc1 [Compound 8g, (E)-4-[(2-Methyl-4-oxo-4H-quinazolin-3-ylimino)-methyl]-benzonitrile]	4.02
Cc1nc2ccc(Br)cc2c(=O)n1/N=C/c1ccc(C#N)cc1 [Compound 8h, (E)-4-[(6-Bromo-2-methyl-4-oxo-4H-quinazolin-3-ylimino)-methyl]-benzonitrile]	3.92
Cc1nc2ccccc2c(=O)n1/N=C/c1ccc(-c2ccccc2)cc1 [Compound 8i]	4.34
Cc1nc2ccccc2c(=O)n1NC(=O)OCC(C)C [Compound 10, (2-methyl-4-oxo-4H-quinazolin-3-yl)-carbamic acid isobutyl ester]	4.25
Cc1cccc(NC(=O)CSc2nc3ccccc3c(=O)n2-c2ccccc2)c1C [Compound 15e]	4.46

Biological target: T4, human group X (hG-X) sPLA2 (Homo sapiens, UniProt O15496)
T4 sequence (O15496 43-165): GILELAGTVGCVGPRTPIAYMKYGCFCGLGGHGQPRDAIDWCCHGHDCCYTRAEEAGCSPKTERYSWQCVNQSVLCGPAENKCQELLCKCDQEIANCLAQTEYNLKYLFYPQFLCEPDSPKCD
Assay: In vitro antiphospholipase activity
Assay type: biochemical
Details: 20 min preincubation, lecithin substrate, pH 7.6

SMILES	mean IC50 against hG-X [µg/mL]
CC1(C)CC[C@]2(C(=O)O)CC[C@]3(C)C(=CC[C@@H]4[C@@]5(C)CC[C@H](O)C(C)(C)[C@@H]5CC[C@]43C)[C@@H]2C1 [Oleanolic acid, reference compound]	7.55 ± 0.64

Same assay, conditions: 20 min preincubation, lecithin substrate, pH 7.6; read-out: mean IC50 against hG-X (converted)

SMILES	IC50 [µM]
Cc1nc2ccccc2c(=O)n1/N=C/c1ccc(C#N)cc1 [Compound 8g, (E)-4-[(2-Methyl-4-oxo-4H-quinazolin-3-ylimino)-methyl]-benzonitrile]	79.8
Cc1nc2ccc(Br)cc2c(=O)n1/N=C/c1ccc(C#N)cc1 [Compound 8h, (E)-4-[(6-Bromo-2-methyl-4-oxo-4H-quinazolin-3-ylimino)-methyl]-benzonitrile]	112
Cc1nc2ccccc2c(=O)n1/N=C/c1ccc(-c2ccccc2)cc1 [Compound 8i]	50.1
Cc1nc2ccccc2c(=O)n1NC(=O)OCC(C)C [Compound 10, (2-methyl-4-oxo-4H-quinazolin-3-yl)-carbamic acid isobutyl ester]	34.5
Cc1cccc(NC(=O)CSc2nc3ccccc3c(=O)n2-c2ccccc2)c1C [Compound 15e]	17.4
